Measured values from US20240424036A1, “COMPOSITIONS AND METHODS FOR PREVENTING OR TREATING INCONTINENCE, OVERACTIVE BLADDER, OR MENSTRUAL CRAMPING” (priority 2018, published 2024).
“Also recorded” adds a separate entry of the source.

Key:
E. coli [1] = assay: ATP release by E. coli at subtherapeutic ciprofloxacin concentrations; format: cell-based, Escherichia coli; settings: concentrations below the MIC of 0.25, 0.125, 0.0625 ug/mL, FIG. 9B
Description: Further testing was completed on E. coli and its release of ATP. Testing was conducted to determine the minimum inhibitory concentration (MIC) and subtherapeutic concentrations of exposure to the antibiotic ciprofloxacin (Cip).
The release of ATP from bacterial supernatants was measured using an ATP colorimetric/fluorometric assay kit (Biovision Inc, CA). Samples and reagents were prepared according to the protocol provided. The OD numbers were taken by the BIOTEK EON microplate reader. A luminescent assay kit BACTITER-GLO™ Microbial Cell Viability Assay, G8230) was used to quantify the amount of extracellular ATP released by the bacteria into the supernatant and released by the cells into the cell media. The SYNERGY™ H4 Hybrid Multi-Mode Microplate Reader was used to quantify the amount of extracellular ATP.

[2] = tested on: primary myofibroblast cells; assay: Myofibroblast populated collagen gel contraction assay; format: cell-based
Description: Bacterial supernatants from E. coli, L. crispatus, and L. gasseri strain KE-1 (ATCC Designation No. PTA-125162) were added to a myofibroblast populated collagen matrix, both from pure culture and mixtures with DMEM with 2% FBS. In addition, GABA, ATP and LPS were included as controls. The collagen contraction assay using primary myofibroblast cells seeded on top of a collagen matrix was tested against the bacterial products. […] As depicted in FIG. 12C, pure ATP caused contraction of myofibroblasts in the first hour (30.37%) and continued for 24 hours (68.56%). […] Based on previous literature, it is believed that the contraction maybe caused by E. coli was due to LPS.
Bladder epithelial cells (5637-ATCC HTB-9) were maintained in RPMI 1640 (Roswell-Park Memorial Institute media—Thermo Fisher Scientific, MA) supplemented with 10% fetal bovine serum (FBS) (Thermo Fisher Scientific, Ma.) and 2 mM L-glutamine (Thermo Fisher Scientific, MA.) at 37° C. and 5% CO2. The media was changed every 48 hours or more regularly if the cells were confluent (90%-100%), after washing by 1×PBS and trypsinization by 0.25% Trypsin-EDTA (1×) (Gibco), with the ratio of 1 to 10. Primary myofibroblast cells were extracted from the palmar fascia during surgery from normal tissue. Primary cultures were maintained in DMEM with 10% fetal bovine serum (FBS; Life Technologies, Carlsbad, CA, USA), 1% L-glutamine (Life Technologies) and 1% antibiotic-antimycotic solution (Life Technologies) at 37° C. in 5% CO2. All primary cell lines were used up to a maximum of four passages, after which they were discarded.

L. crispatus = assay: Growth of L. crispatus in AU supplemented with ATP; format: cell-based, Lactobacillus crispatus; settings: AU supplemented with different concentrations of ATP, FIG. 8E
Description: As depicted in FIG. 8D, the amount of ATP remaining when L. crispatus was grown in AU supplemented with 0.1 mM ATP for 24 hours was 22.89±0.98 uM, which was less than half the control (49.2±6.3 uM) (P≤0.0005). To further investigate ATP reduction, L. crispatus was cultured in AU supplemented with different concentrations of ATP (FIG. 8E), as well as in AU supplemented with 50% E. coli supernatant (FIG. 8G), and 25% G. vaginalis supernatant (FIGS. 8H and 8J), as potential natural sources of ATP. The growth of L. crispatus was increased by increasing ATP concentration (FIG. 8E), including that emanating from the E. coli and G. vaginalis supernatants (FIGS. 8H and 8J). […] In FIGS. 8A-8L, statistical significance was determined using Tukey's test, p≤0.05, and is designated with three asterisks (p less than 0.05*, 0.01**, 0.001***).
For investigation the subtherapeutic concentration of ciprofloxacin, the L. crispatus was grown in deMan, Rogosa, Sharpe media (MRS, Difco, MD). Growth curves for these bacteria were generated using a plate reader (Eon Biotek, VT) at OD600 and 37° C. to determine exponential phase.

E. coli [3] = assay: Growth of E. coli supplemented with ATP; format: cell-based, Escherichia coli; settings: FIG. 8F
5637 cells = assay: Fluorescent microscopy of calcium influx of 5637 cells (FLUO-4); format: cell-based, human
Description: Supernatants were collected from cultures grown overnight (24 hours) at 37° C. after reaching stationary phase. Cultures were pelleted by centrifugation at 5000 rpm (Eppendorf Centrifuge 5804 R) for 15 minutes. The supernatant was pH adjusted to 7.0 with 0.1 Molar HCL or NaOH, filter sterilized with 0.22 um sterile syringe filter, and aliquoted and stored at −20 C° until use. In the case of E. coli and E. faecalis, overnight cultures were diluted 1:100 with fresh artificial urine, returned to incubation at 37° C. and sampled at T=1, 2, 3, 4, 5 and 24 hours for testing. […]
The influx of calcium was measured using the FLUO-4 DIRECT™ Calcium Assay kit (Invitrogen™, CA). […] Cells were counted by using the INVITROGEN COUNTESS AUTOMATED CELL COUNTER (Thermo Fisher Scientific, MA.) per the manufacturers' instructions. […] The effect of treatments was assessed using a NIKON EPIFLUORESCENCE TS2R scope at 10× magnification at 494 nm for excitation and 516 nm for emission for 60 seconds. The image intensity was calculated using ImageJ and is indicative of Ca^2+ influx into the urothelial cell's cytoplasmic space from either the extracellular environment or intracellular Ca^2+ stores (referred to as Ca^2+ influx).

SMILES: O=C(O)c1cn(C2CC2)c2cc(N3CCNCC3)c(F)cc2c1=O [ciprofloxacin]
- ATP released by E. coli (E. coli [1]): up to 0.0261±0.003 uM

SMILES: Nc1ncnc2c1ncn2[C@@H]1O[C@H](COP(=O)(O)OP(=O)(O)OP(=O)(O)O)[C@@H](O)[C@H]1O [ATP, adenosine triphosphate]
- contraction of myofibroblasts ([2]; after 24 hours, sample alone, FIGS. 12A-12C): 68.56%
- contraction of myofibroblasts ([2]; after five hours of exposure, FIG. 12E): 57.5%
- contraction of myofibroblasts ([2]; in the first hour, FIG. 12C): 30.37%
- growth of L. crispatus (L. crispatus): increased
- growth of E. coli (E. coli [3]): somewhat inhibitory effect

SMILES: NCCCC(=O)O [GABA, γ-aminobutyric acid]
- effect on stimulation of calcium influx caused by ATP (5637 cells; AU containing 1 uM GABA mixed with ATP in AU, FIG. 10A): reduce the stimulation of calcium influx
- effect on stimulation of calcium influx caused by E. coli supernatant (5637 cells; GABA mixed with E. coli supernatant, FIG. 10B): inhibit the stimulation of calcium influx
- contraction of myofibroblasts ([2]; GABA alone, FIG. 12C): did not cause contraction
- effect on contraction caused by E. coli ([2]; GABA with E. coli, FIG. 12D): inhibited contraction; also recorded: could inhibit contraction
